According to patent EP2272817A1, “PAI-1 INHIBITOR” (Institute of Medicinal Molecular Design, Inc., priority 2008, dated 2009):

Biological target: recombinant human PAI-1 (Homo sapiens, UniProt P05121)
Assay: biochemical
Conditions: read-out: Inhibition Rate of PAI Activity (%)
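Note: PAI-1 preincubated with compound, then two-chain tPA added, residual tPA activity read with fluorogenic Pyr-Gly-Arg-MCA substrate after 30 min at room temperature.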

recombinant human PAI-1, sequence (P05121 24-402): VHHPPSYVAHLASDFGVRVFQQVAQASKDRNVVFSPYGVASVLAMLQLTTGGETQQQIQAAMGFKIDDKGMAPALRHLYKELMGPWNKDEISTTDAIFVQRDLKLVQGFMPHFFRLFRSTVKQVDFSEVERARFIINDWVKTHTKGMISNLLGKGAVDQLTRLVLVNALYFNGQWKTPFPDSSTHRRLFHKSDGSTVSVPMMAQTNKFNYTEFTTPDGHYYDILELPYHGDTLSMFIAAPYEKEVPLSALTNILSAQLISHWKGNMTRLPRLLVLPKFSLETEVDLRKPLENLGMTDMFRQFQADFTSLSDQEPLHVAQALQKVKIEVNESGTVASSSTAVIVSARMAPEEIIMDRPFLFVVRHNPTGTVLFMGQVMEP

inhibition at 10 µM | inhibition at 25 µM | SMILES | inhibition at 5 µM
56% | 88% | O=C(O)CCc1cc(-c2ccc(OC(F)(F)F)cc2)ccc1OCc1ccc(-c2ccccc2)cc1 [Compound 29] | 21%
53% | 82% | O=C(O)/C=C/c1cc(-c2ccc(OC(F)(F)F)cc2)ccc1OCc1cccc(C(F)(F)F)c1 [Compound 57] | 24%
10% | 53% | O=C(O)CCc1cc(-c2ccc(OC(F)(F)F)cc2)ccc1OCc1ccc(F)cc1 [Compound 20] | 
11% | 70% | O=C(O)CCc1cc(-c2ccc(OC(F)(F)F)cc2)ccc1OCc1ccccc1C(F)(F)F [Compound 21] | 

SMILES | inhibition at 10 µM | inhibition at 25 µM | inhibition at 5 µM
Cc1ccc(COc2ccc(-c3ccc(OC(F)(F)F)cc3)cc2CCC(=O)O)cc1 [Compound 61] | 48% | 97% | 21%
Cc1cc(C)cc(COc2ccc(-c3ccc(OC(F)(F)F)cc3)cc2CCC(=O)O)c1 [Compound 59] | 53% | 77% | 25%

Same assay, conditions: read-out: Inhibition Rate of PAI-1 Activity (%)

SMILES | inhibition at 5 µM | inhibition at 10 µM | inhibition at 25 µM
O=C(O)CCc1cc(OCc2ccc(OC(F)(F)F)cc2)ccc1OCc1ccc(OC(F)(F)F)cc1 [Compound 404] | 14% | 31% | 84%
CCCOc1ccc(N(CCCCc2ccccc2)C(=O)C(=O)O)cc1-c1ccc(OC(F)(F)F)cc1 [Compound 240] | 62% | 91% | 95%
CC(C)(C)c1ccc(CN(C(=O)C(=O)O)c2ccc(-c3ccc(C#N)cc3)cc2)cc1 [Compound 149] |  | 3% | 34%
CC(C)(C)c1ccc(CN(C(=O)C(=O)O)c2ccc(-c3cccc([N+](=O)[O-])c3)cc2)cc1 [Compound 142] |  | 3% | 33%
O=C(O)/C=C/c1c(Oc2ccc(OC(F)(F)F)cc2)cccc1Oc1ccc(OC(F)(F)F)cc1 [Compound 97] | 30% | 40% | 53%
O=C(O)CCc1cc(-c2ccc(OC(F)(F)F)cc2)ccc1OCCCOc1ccccc1 [Compound 103] | 33% | 57% | 89%
CC(C)(C)c1ccc(CN(C(=O)C(=O)O)c2ccc(-c3ccc(C(C)(C)C)cc3)cc2)cc1 [Compound 163] | 37% | 84% | > 99%
O=C(O)C(=O)N(CCCCc1ccccc1)c1ccc(N2CCCCC2)c(-c2ccc(OC(F)(F)F)cc2)c1 [Compound 247] | 93% | 99% | 
CC(C)(C)c1ccc(CN(C(=O)C(=O)O)c2cc(-c3ccccc3)cc(C(F)(F)F)c2)cc1 [Compound 140] | 6% | 31% | 77%
Cc1cc(-c2ccc(OC(F)(F)F)cc2)cc(/C=C/C(=O)O)c1OCc1ccc(C(C)(C)C)cc1 [Compound 83] | 27% | 46% | 56%
CCCCOc1ccc(-c2ccc(OC(F)(F)F)cc2)cc1N(CCCc1ccccc1)C(=O)C(=O)O [Compound 235] | 66% | 89% | 93%
CCC(CC)Oc1ccc(N(CCCc2ccccc2)C(=O)C(=O)O)c(-c2ccc(OC(F)(F)F)cc2)c1 [Compound 237] | 75% | 92% | 
CC(C)c1ccc(Oc2ccc(/C=C\C(=O)O)c(Oc3ccc(C(C)C)cc3)c2)cc1 [Compound 74] | 13% | 53% | 96%
O=C(O)CCc1cc(-c2ccc(OC(F)(F)F)cc2)ccc1OCCCc1ccccc1 [Compound 101] | 42% | 73% | > 99%
CCCCCOc1ccc(N(CCCCc2ccccc2)C(=O)C(=O)O)cc1-c1ccc(OC(F)(F)F)cc1 [Compound 244] | 71% | 91% | 

Next, values leading:

inhibition at 5 µM | inhibition at 10 µM | inhibition at 25 µM | SMILES
62% | 92% | 88% | CC(C)(C)c1ccc(CN(C(=O)C(=O)O)c2ccc(Cl)c(OCc3ccc(OC(F)(F)F)cc3)c2)cc1 [Compound 629]
74% | 92% | 87% | CC(C)(C)c1ccc(CN(C(=O)C(=O)O)c2ccc(Cl)cc2Oc2ccc(OC(F)(F)F)cc2)cc1 [Compound 191]
30% | 74% | > 99% | CC(C)(C)c1ccc(-c2ccc(N(Cc3ccc(OC(F)(F)F)cc3)C(=O)C(=O)O)cc2)cc1 [Compound 162]
86% | 84% |  | CC(C)(C)c1ccc(CN(C(=O)C(=O)O)c2ccc(N3CCCCC3)c(-c3ccc(OC(F)(F)F)cc3)c2)cc1 [Compound 217]
27% | 62% |  | Cc1cc(C)cc(CN(C(=O)C(=O)O)c2ccc(-c3ccc(OC(F)(F)F)cc3)cc2)c1 [Compound 123]
49% | 83% | 96% | CC(C)(C)c1ccc(CN(C(=O)C(=O)O)c2ccc(OCc3ccc(OC(F)(F)F)cc3)cc2)cc1 [Compound 616]
37% | 51% | 83% | CC(C)(Oc1ccc(-c2ccc(OC(F)(F)F)cc2)cc1Oc1ccc(C(C)(C)C)cc1)C(=O)O [Compound 110]
51% | 86% | 89% | CC(c1ccc(C(C)(C)C)cc1)N(C(=O)C(=O)O)c1ccc(-c2ccc(OC(F)(F)F)cc2)cc1 (stereo not shown) [Compound 220]
38% | 66% | 84% | CC(C)(C)c1ccc(COc2ccc(OCc3ccc(OC(F)(F)F)cc3)cc2/C=C/C(=O)O)cc1 [Compound 413]
64% | 89% | 92% | CC(C)(C)c1ccc(CN(C(=O)C(=O)O)c2ccc(-c3cccc(OC(F)(F)F)c3)cc2)cc1 [Compound 200]
26% | 59% | 97% | CC(C)(C)c1ccc(COc2cc(/C=C/C(=O)O)cc(Oc3ccc(OC(F)(F)F)cc3)c2)cc1 [Compound 409]
14% | 26% | 68% | CSc1ccc(CN(C(=O)C(=O)O)c2ccc(-c3ccc(OC(F)(F)F)cc3)cc2)cc1 [Compound 160]
81% | 98% | 94% | CC(C)Oc1ccc(N(Cc2ccc(C(C)(C)C)cc2)C(=O)C(=O)O)c(-c2ccc(OC(F)(F)F)cc2)c1 [Compound 209]
83% | 78% |  | CC(C)(C)Oc1ccc(N(Cc2ccc(C(C)(C)C)cc2)C(=O)C(=O)O)cc1-c1ccc(OC(F)(F)F)cc1 [Compound 218]
21% | 45% | 92% | O=C(O)C(=O)N(Cc1ccc(OC(F)(F)F)cc1)c1ccc(-c2ccc(OC(F)(F)F)cc2)cc1 [Compound 159]
27% | 51% | 73% | CC(C)(C)c1ccc(COc2cc(Oc3ccc(OC(F)(F)F)cc3)ccc2/C=C/C(=O)O)cc1 [Compound 77]
70% | 94% | 98% | CC(C)(C)c1ccc(-c2ccc(N(Cc3ccccc3OC(F)(F)F)C(=O)C(=O)O)cc2)cc1 [Compound 202]
33% | 67% | 96% | CC(C)(C)c1ccc(COc2ccc(OCc3ccc(OC(F)(F)F)cc3)cc2CCC(=O)O)cc1 [Compound 414]
3% | 22% | 76% | O=C(O)C(=O)N(Cc1ccc(Cl)cc1Cl)c1ccc(-c2ccc(OC(F)(F)F)cc2)cc1 [Compound 144]
66% | 94% | 87% | CC(C)(C)c1ccc(CN(C(=O)C(=O)O)c2cc(Oc3ccc(OC(F)(F)F)cc3)cc(C(F)(F)F)c2)cc1 [Compound 175]
22% | 44% | 81% | O=C(O)C(=O)N(Cc1c(Cl)cccc1Cl)c1ccc(-c2ccc(OC(F)(F)F)cc2)cc1 [Compound 171]
3% | 6% | 34% | CCCCCCN(C(=O)C(=O)O)c1ccc(Oc2ccc(OC(F)(F)F)cc2)cc1 [Compound 252]
38% | 73% | 94% | CC(C)(C)c1ccc(N(C(=O)C(=O)O)c2cccc(Oc3ccc(OC(F)(F)F)cc3)c2)cc1 [Compound 170]
79% | 90% |  | CCC(CC)Oc1ccc(N(Cc2ccc(C(C)(C)C)cc2)C(=O)C(=O)O)c(-c2ccc(OC(F)(F)F)cc2)c1 [Compound 207]
35% | 80% | 90% | CC(C)(C)c1ccc(CN(C(=O)C(=O)O)c2ccc(-c3ccc(OC(F)(F)F)cc3)cc2OC(F)(F)F)cc1 [Compound 151]
51% | 87% | 94% | CC(C)(C)c1ccc(Oc2cccc(-c3ccc(OC(F)(F)F)cc3)c2/C=C/C(=O)O)cc1 [Compound 93]
16% | 47% | 79% | Cc1ccc(-c2ccc(OC(F)(F)F)cc2)cc1N(Cc1ccc(C(C)(C)C)cc1)C(=O)C(=O)O [Compound 136]
55% | 88% | 94% | CC(C)(OCc1ccc(-c2ccc(OC(F)(F)F)cc2)cc1Oc1ccc(C(C)(C)C)cc1)C(=O)O [Compound 111]
56% | 88% | 88% | Cc1cc(-c2ccc(OC(F)(F)F)cc2)cc(N(Cc2ccc(C(C)(C)C)cc2)C(=O)C(=O)O)c1 [Compound 178]
